According to US4094908A, “Alpha-substituted benzhydrol derivatives” (Richter Gedeon Vegyeszeti Gyar Rt., priority 1973, dated 1978):

How the values were obtained:
hexobarbital oxidase = experiment: Enzyme-inducing potency: in vivo hexobarbital oxidase activity (duration of hexobarbital narcosis); set-up: species or system Female Wistar rats; details: 24 hours before hexobarbital
Experimental: […] 24 and 48 hours after the administration of the active agent, respectively, the animals were narcotized with 40 mg./kg. i.v. dosage of hexobarbital sodium, and the time elapsed until complete wakening was measured (Noordhock, J.: Eur. J. Pharmacol. 3, 242, 1968). The data were recorded, and the mean values, the standard errors, as well as the percentage increase with respect to the controls were calculated for each group. […] The hexobarbital concentration of the plasma, measured on the instant of wakening, was the same for both the treated and the control animals, thus the increase of narcosis period was not due to a certain central nervous interaction (Jori, A., Bianchatti, A., Presentini, P. E.: Biochem. Pharmacol. 19, 2687, 1970).
The enzyme-inducing potency of the new compounds was determined by several methods. One of these methods was the in vivo measurement of hexobarbital oxidase activity.
The decrease of narcosis period is due to the fact that the new compounds according to the invention accelerate the elimination of hexobarbital, a foreign substance, from the body. When administering the compound to be tested in a single dosage and measuring the duration of hexobarbital narcosis 24 hours after the administration, the following results are obtained: […]

bilirubin elimination = experiment: Bilirubin elimination under in vivo conditions; set-up: species or system rats; details: for t1/2 (biological halving period of bilirubin): pre-treated rats, 30 mg./kg. free bilirubin i.v.
Experimental: When examining the bilirubin elimination under in vivo conditions on rats pre-treated with E 15 or phenobarbital, respectively, and challenged intravenously with a dosage of 30 mg./kg. of free bilirubin, the following biological halving periods were determined (Krueger, H., Higginson, J.: Proc. Soc. Exp. Biol. Med. 107, 43, 1961): […]

[1] = Toxicity: perished animals/tested animals; assay type: in vivo
Description: Despite its disadvantageous properties, phenobarbital is widely used in the treatment of neonatal jaundice. In order to enable a better comparison, Table 8 indicates the respective dosages in which phenobarbital causes lethal respiration paralysis, while the compounds according to the invention are completely innocuous.

central nervous system = assay type: in vivo, mice and rats; details: for Central nervous effects: in words, in contrast with phenobarbital
Description: The central nervous activities of the compounds according to the invention were examined on mice and rats with the following methods: electroshock (Swinyard, E. A., Brown, W. C., Goodman, L. S.: J. Pharmacol. Exp. Ther. 106, 319, 1952), metrazol spasm (Everett, G. M., Richards, R. K.: J. Pharmacol. Exp. Ther. 81, 402: 1944), thiosemicarbezide spasm (Da Venzo, J. P. Greig, M. E., Cormin, M. A.: Amer. J. Physiol. 201, 833: 1961), strychnine spasm (Kerley, T. L., Richards, A. G., Begley, R. W., Abreu, B. B. Wesver, L. C.: J. Pharmacol. Exp. Ther. 132, 360: 1961), nicotine spasm (Stone, C. A., Mecklenburg, K. L., Torhans, M. L.: Arch. Int. Pharmacodyn. 117, 419: 1958), rotarod test (Kinnard, W. C., Carr, C. J.: J. Pharmacol. Expt. Ther. 121, 3, 54: 1957), physistigmine lethality preventing effect (Nose, T., Kojima, M.: Europ. J. Pharmacol. 10, 83: 1970), yohimbine potentiation effect (Quinton, R. M.: Brit. J. Pharmacol. 21, 51: 1963), and analgesic activity (Bianchi, G., Franceschini, J.: Brit. J. Pharm. Chemother. 9, 280: 1954). As reference substance, phenobarbital was used. […]

[2] = neonatal jaundice; in words; cited from earlier work
[3] = tested on: liver microsomal enzyme system; experiment: Biological halving period of hexobarbital and hexobarbital concentration at wakening; assay type: in vivo; details: pre-treated 24 hours prior to hexobarbital; female rats 150 g
meprobamate elimination = experiment: Biological halving period of meprobamate after pre-treatment; assay type: in vivo; details: 24 hours after pre-treatment
Experimental: The biological halving period of meprobamate was determined 24 hours after pre-treatment with the compounds of the formula (I) (Ludwig, B. J., Hoffman, A. J.; Arch. Biochem. 72, 234, 1957).

[4] = tested on: bromosulfophthalein elimination; experiment: Bromosulfophthalein (BSP) concentration of the plasm after pre-treatment; assay type: in vivo; details: 24 hours after pre-treatment; after i.v. bromsulfophthaleine
Experimental: The bromosulfophthalein (BSP) concentration of the plasm was determined 24 hours after pre-treatment with the compounds of the formula (I) and after the intravenous administration of bromsulfophthaleine, respectively (Varga, F., Fisher, E.: Acta Physiol. Hung. 36, 431, 1969).

[5] = tested on: UDP-glucoronyltransferase; experiment: UDP-glucuronyltransferase activity of liver tissues removed from pre-treated animals (bilirubin conjugation); assay type: in vivo; details: liver tissues of pre-treated animals incubated with bilirubin
Experimental: In an in vivo test, liver tissues removed from animals pre-treated with compounds of the formula (I) were incubated in the presence of bilirubin, in order to determine the UDP-glucoronyltransferase activity of the liver tissues (Adlard, B. P. F., Lester, R. G., Lathe, G. H.: Biochem Pharmacol. 18, 59, 1969).

[6] = tested on: liver microsomal enzyme system; experiment: Promotion or inhibition of the liver microsomal enzyme system; assay type: in vivo; details: in words
Description: Tests per the methods described herein have shown compounds to be either effective in the promotion or inhibition of the liver microsomal enzyme system as follows: […]

SMILES | Sleeping period ± standard error (hexobarbital oxidase; 5 mg./kg. single dosage) | Sleeping period ± standard error (hexobarbital oxidase; 10 mg./kg. single dosage) | Sleeping period ± standard error (hexobarbital oxidase; 20 mg./kg. single dosage) | Sleeping period ± standard error (hexobarbital oxidase; 40 mg./kg. single dosage) | t1/2 (biological halving period of bilirubin) (bilirubin elimination) | Perished animals/tested animals ([1]; 40 mg./kg) | Perished animals/tested animals ([1]; 80 mg./kg) | Perished animals/tested animals ([1]; 160 mg./kg) | Perished animals/tested animals ([1]; 320 mg./kg) | Perished animals/tested animals ([1]; 640 mg./kg) | Central nervous effects (central nervous system) | other results
CCC1(c2ccccc2)C(=O)NC(=O)NC1=O [Phenobarbital, reference compound] | 20.1 ± 2.0 | 14.3 ± 1.4 | 14.0 ± 1.3 | 12.5 ± 1.2 | 13 min | 0/10 | 0/10 | 4/10 | 9/10 | 10/10 | hypnotic and respiration paralyzing effects | Central nervous activity (central nervous system; oral 40, 120 and 150 mg./kg., phenobarbital effect even at 40 mg./kg.): strong anticonvulsive muscle-incoordinating and sedative effects; Side effects [2]: toxic (sedative and respiration-paralyzing) side effects
CCC(O)(c1ccccc1)c1cccc(C(F)(F)F)c1 (stereo not drawn) [E 15, 3-Trifluoromethyl-α-ethyl-benzhydrol] | 18.0 ± 1.7 | 14.2 ± 1.5 | 10.6 ± 1.2 | 8.8 ± 0.9 | 7 min | 0/10 | 0/10 | 0/10 | 0/10 | 0/10 | no central nervous effects | t1/2 (biological halving period of hexobarbital) [3]: 23 min.; t1/2 (biological halving period of meprobamate) (meprobamate elimination): 2.1 hours; BSP concentration of the plasm [4]: 5.0 μg./mg. plasm; Conjugated bilirubine [5]: 37.4 ± 3.6 µg/g/h; Acceleration of bilirubin elimination compared with phenobarbital (bilirubin elimination; rats, in words): about twice stronger than that of phenobarbital; Effect on the liver microsomal enzyme system (inducing or inhibiting) [6]: particularly advantageous inducing effect; Potency among the enzyme inducing or inhibiting compounds [6]: particularly potent; Duration and strength of inducing effect compared with phenobarbital ([6]; compared with phenobarbital): reaches that of phenobarbital
